Values of other authors as cited in patent US11504327B1, “Method of preparing nanoparticles by hot-melt extrusion” (priority 2019, dated 2022).

Conditions: polyethoxylated oleyl alcohols; Walters et al. 1993

Substance	permeation enhancement of ibuprofen across human skin
oleth-2	most effective permeation enhancer
oleth-20	worst
